Measured values published in BigSolDB 2.1.

Cn1nnc2c(C(N)=O)ncn2c1=O
solubility (mole fraction)
Details	273.15 K	278.15 K	283.15 K	288.15 K	293.15 K	298.15 K	303.15 K	308.15 K	313.15 K	318.15 K
in ethanol	6.58e-05	7.89e-05	9.48e-05	0.000115	0.000136	0.00016	0.000188	0.000225	0.000269	0.000313
in ethyl acetate	8.03e-05	9.96e-05	0.00012	0.000144	0.000173	0.000206	0.000237	0.000277	0.000319	0.000371
in isopropanol	2.2e-05	2.69e-05	3.4e-05	4.26e-05	5.17e-05	6.38e-05	7.8e-05	9.41e-05	0.000116	0.000143
in methanol	0.000174	0.000217	0.00027	0.000327	0.00039	0.000459	0.000536	0.000621	0.00072	0.000838
in n-propanol	4.28e-05	5.53e-05	6.99e-05	8.65e-05	0.000107	0.00013	0.000157	0.000188	0.000226	0.000271
